Measurements as given in PMC6934184, “Selective DNA-PKcs inhibition extends the therapeutic index of localized radiotherapy and chemotherapy” (The Journal of Clinical Investigation, 2019).

Molecular target: T1, CAMK2A (CaMKII alpha) (Homo sapiens, UniProt Q9UQM7)
T1 construct: purchased Thermo Fisher Scientific (Life Technologies) SelectScreen
Assay: SelectScreen Z'LYTE
Assay type: biochemical
Outline: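 NU5455 was profiled across the SelectScreen Broad panel of kinase activity and binding assays. Z'LYTE reactions such as CSF1R ran at apparent Km ATP, while the Adapta CAMK1 assay used ATP listed as 10. Values are given as percent.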

T1 sequence (Q9UQM7 whole entry): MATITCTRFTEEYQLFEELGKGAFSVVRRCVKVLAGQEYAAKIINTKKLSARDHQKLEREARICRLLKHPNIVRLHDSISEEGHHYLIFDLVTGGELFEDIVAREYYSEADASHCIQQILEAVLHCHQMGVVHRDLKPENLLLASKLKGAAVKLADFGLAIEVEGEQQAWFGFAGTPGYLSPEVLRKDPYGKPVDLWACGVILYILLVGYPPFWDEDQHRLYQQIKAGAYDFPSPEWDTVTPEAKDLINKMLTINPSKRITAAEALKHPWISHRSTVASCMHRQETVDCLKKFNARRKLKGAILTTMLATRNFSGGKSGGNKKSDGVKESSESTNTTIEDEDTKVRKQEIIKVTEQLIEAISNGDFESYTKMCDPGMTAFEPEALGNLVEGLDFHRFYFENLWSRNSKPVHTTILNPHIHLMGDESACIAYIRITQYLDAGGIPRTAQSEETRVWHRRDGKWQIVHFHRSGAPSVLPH

SMILES: CN(C(=O)CN1CCOCC1)c1ccc2sc3c(-c4cccc5c(=O)cc(N6CC7CCC(C6)O7)oc45)cccc3c2c1 [NU5455]
- inhibition at 1 µM: -0.6%
